In ChEMBL document CHEMBL1122335, “Synthesis of an N-aminopyrazinonium analogue of cytidine” (J Med Chem, 1983) one finds inhibition and pKa data, which are given here for 1 compound.

Structures are written as SMILES.

Series [1] relates to L1210. The experiment in a line: Growth inhibition of L1210 cells in culture in the first 48 hours of exposure at a concentration of 5 x 10e-5 M. The conditions noted are these: Mus musculus, L1210, 48 h. Type of series: functional.
Series [2] concerns L1210. Put plainly: Growth inhibition of L1210 cells in culture in the first 48 hours of exposure at a concentration of 1 x 10e-5 M. Type of series: functional. Particulars: Mus musculus, L1210, 48 h.
The nature of series [3]: Ionization constant of the compound. Type of series: physicochemical.
Series [4] has as its system L1210. Put plainly: Growth inhibition of L1210 cells in culture in the first 48 hours of exposure at a concentration of 5 x 10e-6 M. Type of series: functional. The conditions noted are these: Mus musculus, L1210, 48 h.

As a reminder, the inhibition is how much of the control response was suppressed. A word on the pKa: it is the pH at which an ionisable group is half protonated. Low values mean a group that gives up its proton readily, high ones a group that holds its proton tightly.

Compound `Nn1ccn([C@@H]2O[C@H](CO)[C@@H](O)[C@H]2O)c(=O)c1=O` showed an inhibition at 50 µM in series [1] of 25%. The compound also displayed an inhibition at 10 µM in series [2] of 20%. Besides, in series [3], the pKa came to 8.8. Besides, the inhibition at 5 µM in series [4] was 15%.
